Measurements as given in PMC8294567, “Associations between plasma nucleoside reverse transcriptase inhibitors concentrations and cognitive function in people with HIV” (PLoS ONE, 2021).
Structures can show the parent of a compound that is named as a salt.

Legend:
[1] = test system: cognitive function; conditions: cited from earlier work
[2] = human, in vivo
Protocol: (§1) NRTI concentrations were measured by a validated method on ultra-performance liquid chromatography (ACQUITY, Waters) in plasma samples collected at study baseline. Briefly, 200 μL of plasma was subjected to solid phase extraction (MCX cartridge, Waters) and the elutants were dried under nitrogen stream before being re-constituted in 50 μL of water. The NRTI drugs were separated using a C18 BEH column (1.7 μm, 2.1 mm x 100 mm, Waters). For each of the four NRTIs, population PK models were determined using nonlinear mixed effects (NONMEM v.7.3) using the $PRIOR subroutine to stabilise the models and aid partition of inter-individual and residual variabilities. The impact of covariates on antiretroviral apparent oral clearance was evaluated. […] Model fit was assessed by statistical and graphical methods. A decrease in the minimal objective function value (-2*log likelihood) of at least 3.84 units (corresponding to a p-value<0.05) was required to accept a model with an extra parameter. Once significant covariates were incorporated, a backwards elimination process was performed and biologically plausible covariates generating an increase in the objective function value of at least 10.83 (i.e. p<0.001) units were retained.
Continuous variables, including PK parameters and cognitive z-scores, were summarized using the median and the interquartile range (IQR); categorical variables were described using frequencies and percentages. Associations between NRTI PK parameters and cognitive z-scores were assessed using a series of rank regression models, one for each combination of cognitive domain/global score, NRTI and PK parameter (7x4x3 models). In each model, the cognitive score was considered as the dependent variable and the NRTI PK parameter as an independent variable in addition to the following confounders, selected a priori: age, gender, ethnicity, education, recreational drug use, alcohol consumption, glomerular filtration rate (estimated using the Chronic Kidney Disease Epidemiology Collaboration equation [15]), depressive symptoms (assessed via the Patient Health Questionnaire-9 [16]) use of ritonavir/cobicistat boosted protease inhibitor and use of efavirenz. […] Multivariable analyses were conducted as follows, in order to investigate associations of each PK parameter for one NRTI, independently of the concentration of the other NRTI in the regimen. […] All analyses were performed using the statistical software SAS v9.4 with p-values <0.05 considered as statistically significant.

[3] = Plasma NRTI concentrations and population PK parameters (POPPY study)
Protocol: as §1, with “methods.” for “methods. A decrease in the minimal objective function value (-2*log likelihood) of at least 3.84 units (corresponding to a p-value<0.05) was required to accept a model with an extra parameter. Once significant covariates were incorporated, a backwards elimination process was performed and biologically plausible covariates generating an increase in the objective function value of at least 10.83 (i.e. p<0.001) units were retained.”

[4] = parameters: method as in PMID 16390539; conditions: cited from earlier work
[5] = PWH on cART, median (IQR), from population PK model

SMILES | Eta^2, Age vs AUC0-24 [2] | Eta^2, Age vs Cmax [2] | Eta^2, Age vs Ctrough [2] | Eta^2, Alcohol consumption vs AUC0-24 [2] | Eta^2, Alcohol consumption vs Cmax [2] | Eta^2, Alcohol consumption vs Ctrough [2] | Eta^2, BMI vs AUC0-24 [2] | Eta^2, BMI vs Cmax [2] | Eta^2, BMI vs Ctrough [2] | Eta^2, Education vs AUC0-24 [2] | Eta^2, Education vs Ctrough [2] | Eta^2, Ethnicity vs Ctrough [2] | Eta^2, Gender vs Ctrough [2] | Eta^2, PHQ-9 score vs Ctrough [2] | Eta^2, Recreational drug use vs Ctrough [2] | Eta^2, Use of Efavirenz vs Ctrough [2] | Eta^2, Use of boosted PI vs Ctrough [2] | Eta^2, eGFR vs Ctrough [2] | Ctrough [3, 5] | AUC(0-t) ([3]; human, po) | also measured
Nc1nc(NC2CC2)c2ncn([C@H]3C=C[C@@H](CO)C3)c2n1 [ABC, abacavir] | 0.005 | 0.017 | 0.069 | 0.002 | 0.000 | 0.008 | 0.010 | 0.014 | 0.000 | 0.071 | 0.114 | 0.002 | 0.001 | 0.000 | 0.010 | 0.040 | 0.059 | 0.089 | ABC: 2.6 (1.4, 4.6) μg/l | 12700 ng·h/mL | effect on cognitive performance ([1]; cohort study): beneficial effect; cognitive function after ABC initiation ([1]; randomized controlled trial, PWH with HIV-associated dementia): no improvement of cognitive function; Eta^2, Education vs Cmax [2]: 0.033; Eta^2, Ethnicity vs AUC0-24 [2]: 0.011; Eta^2, Ethnicity vs Cmax [2]: 0.025; Eta^2, Gender vs AUC0-24 [2]: 0.036; Eta^2, Gender vs Cmax [2]: 0.034; Eta^2, PHQ-9 score vs AUC0-24 [2]: 0.000; Eta^2, PHQ-9 score vs Cmax [2]: 0.001; Eta^2, Recreational drug use vs AUC0-24 [2]: 0.027; Eta^2, Recreational drug use vs Cmax [2]: 0.009; Eta^2, Use of Efavirenz vs AUC0-24 [2]: 0.016; Eta^2, Use of Efavirenz vs Cmax [2]: 0.000; Eta^2, Use of boosted PI vs AUC0-24 [2]: 0.053; Eta^2, Use of boosted PI vs Cmax [2]: 0.008; Eta^2, eGFR vs AUC0-24 [2]: 0.039; Eta^2, eGFR vs Cmax [2]: 0.000; Cmax ([3]; human, po): 4200 ng/mL
CC(C)OC(=O)[C@H](C)N[P@](=O)(CO[C@H](C)Cn1cnc2c(N)ncnc21)Oc1ccccc1 [TAF, tenofovir alafenamide] |  |  |  |  |  |  |  |  |  |  |  |  |  |  |  |  |  |  |  |  | cognitive performances on switching from TDF to TAF ([1]; PWH switching from TDF to TAF): no changes in cognitive performances
Nc1ccn([C@@H]2CS[C@H](CO)O2)c(=O)n1 [3TC, lamivudine] |  |  | 0.101 |  |  | 0.005 |  |  | 0.002 |  | 0.084 | 0.021 | 0.002 | 0.015 | 0.014 | 0.041 | 0.039 | 0.230 | 3TC: 12.4 (3.0, 126.7) μg/l | 9900 ng·h/mL | Cmax ([3]; human, po): 2400 ng/mL
C[C@H](Cn1cnc2c(N)ncnc21)OCP(=O)(O)O [TFV, tenofovir] |  |  |  |  |  |  |  |  |  |  |  |  |  |  |  |  |  |  | TFV: 53.0 (44.0, 67.0) μg/l | 2700 ng·h/mL | Cmax [3, 5]: TFV: 0.3 (0.2, 0.3) mg/l
CC(C)OC(=O)OCOP(=O)(CO[C@H](C)Cn1cnc2c(N)ncnc21)OCOC(=O)OC(C)C [TDF, tenofovir disoproxil fumarate] | 0.070 | 0.028 | 0.075 | 0.002 | 0.005 | 0.001 | 0.095 | 0.271 | 0.013 | 0.016 | 0.011 | 0.011 | 0.001 | 0.002 | 0.012 | 0.005 | 0.004 | 0.135 |  |  | CNS penetration [4]: low CNS penetration; Eta^2, Education vs Cmax [2]: 0.020; Eta^2, Ethnicity vs AUC0-24 [2]: 0.007; Eta^2, Ethnicity vs Cmax [2]: 0.000; Eta^2, Gender vs AUC0-24 [2]: 0.009; Eta^2, Gender vs Cmax [2]: 0.033; Eta^2, PHQ-9 score vs AUC0-24 [2]: 0.001; Eta^2, PHQ-9 score vs Cmax [2]: 0.001; Eta^2, Recreational drug use vs AUC0-24 [2]: 0.007; Eta^2, Recreational drug use vs Cmax [2]: 0.000; Eta^2, Use of Efavirenz vs AUC0-24 [2]: 0.003; Eta^2, Use of Efavirenz vs Cmax [2]: 0.000; Eta^2, Use of boosted PI vs AUC0-24 [2]: 0.004; Eta^2, Use of boosted PI vs Cmax [2]: 0.002; Eta^2, eGFR vs AUC0-24 [2]: 0.124; Eta^2, eGFR vs Cmax [2]: 0.042
Nc1nc(=O)n([C@@H]2CS[C@H](CO)O2)cc1F [FTC, emtricitabine] | 0.157 | 0.189 | 0.099 | 0.000 | 0.000 | 0.001 | 0.000 | 0.000 | 0.000 | 0.013 | 0.013 | 0.005 | 0.000 | 0.004 | 0.025 | 0.005 | 0.005 | 0.083 | FTC: 75.0 (59.0, 99.0) μg/l | 10400 ng·h/mL | Eta^2, Education vs Cmax [2]: 0.011; Eta^2, Ethnicity vs AUC0-24 [2]: 0.010; Eta^2, Ethnicity vs Cmax [2]: 0.014; Eta^2, Gender vs AUC0-24 [2]: 0.000; Eta^2, Gender vs Cmax [2]: 0.000; Eta^2, PHQ-9 score vs AUC0-24 [2]: 0.004; Eta^2, PHQ-9 score vs Cmax [2]: 0.002; Eta^2, Recreational drug use vs AUC0-24 [2]: 0.030; Eta^2, Recreational drug use vs Cmax [2]: 0.033; Eta^2, Use of Efavirenz vs AUC0-24 [2]: 0.008; Eta^2, Use of Efavirenz vs Cmax [2]: 0.008; Eta^2, Use of boosted PI vs AUC0-24 [2]: 0.008; Eta^2, Use of boosted PI vs Cmax [2]: 0.008; Eta^2, eGFR vs Cmax [2]: 0.172; Cmax ([3]; human, po): 1100 ng/mL
